Test results as given in PubChem BioAssay AID2044 (Broad Institute, 2009).
Records with an inconclusive call do not appear.

Test system: T. cruzi beta-gal in NIH3T3, GalScreen luminescence, 90 h
Experiment: inhibitors of intracellular T. cruzi replication, confirmation, NIH3T3 host cells, beta-gal luminescence (AID 2044)

Compound: C#CCOCCOCCOCCNc1nc(N2CCN(C(=O)CCCCCCCCCCNC(=O)Cn3cc(C[C@@H](C)O)nn3)CC2)nc(N2CCN(C(=O)CCCCCCCCCCNC(=O)[C@H](CCCN=C(N)N)n3cc(C[C@@H](C)CC)nn3)CC2)n1
- EC50: 967 nM
